pIC50: −log10 of the molar value. Calls of active or inactive are those of the source. The rule behind the calls is not given here.
Assays:
A549 [1] = assay: Induction of apoptosis in human A549 cells assessed as increase in cleaved caspase-3 levels at 0.5 to 3 uM after 24 hrs by Western blot method; format: functional, cell-based
[2] = Selectivity index, ratio of CC50 for human GES1 cells to IC50 for human A549 cells; format: toxicity; details: GES1 cells (CC50) versus A549 cells (IC50)
A549 [3] = assay: Induction of apoptosis in human A549 cells assessed as viable cells at 0.5 uM after 24 hrs by annexin V-FITC/propidium iodide staining-based flow cytometric method (reference value: 97.7%); format: functional; details: A549, 24 h, read-out: Activity
A549 [4] = assay: Induction of apoptosis in human A549 cells assessed as necrotic cells at 3 uM after 24 hrs by annexin V-FITC/propidium iodide staining-based flow cytometric method (reference value: 0%); format: functional
A549 [5] = assay: Antiproliferative activity against human A549 cells at 3.2 uM after 24 hrs by MTT assay relative to control; format: functional
[6] = Selectivity index, ratio of CC50 for human HTB125 cells to IC50 for human A549 cells; format: toxicity; details: HTB125 cells (CC50) versus A549 cells (IC50)
[7] = Selectivity index, ratio of CC50 for human IOSE80 cells to IC50 for human A549 cells; format: toxicity; details: IOSE80 cells (CC50) versus A549 cells (IC50)
A549 [8] = assay: Induction of apoptosis in human A549 cells assessed as viable cells at 3 uM after 24 hrs by annexin V-FITC/propidium iodide staining-based flow cytometric method (reference value: 97.7%); format: functional; details: A549, 24 h, read-out: Activity
A549 [9] = assay: Induction of apoptosis in human A549 cells assessed as late apoptotic cells at 3 uM after 24 hrs by annexin V-FITC/propidium iodide staining-based flow cytometric method (reference value: 1.1%); format: functional
A549 [10] = assay: Induction of apoptosis in human A549 cells assessed as late apoptotic cells at 1.5 uM after 24 hrs by annexin V-FITC/propidium iodide staining-based flow cytometric method (reference value: 1.1%); format: functional
A549 [11] = assay: Induction of apoptosis in human A549 cells assessed as decrease in ratio of Bcl2/Bax at 1.5 uM after 24 hrs by Western blot method relative to control; format: functional
A549 [12] = assay: Antiproliferative activity against human A549 cells at 8 uM after 24 hrs by MTT assay relative to control; format: functional
A549 [13] = assay: Induction of apoptosis in human A549 cells assessed as decrease in ratio of Bcl2/Bax at 1 uM after 24 hrs by Western blot method relative to control; format: functional
[14] = Selectivity index, ratio of CC50 for HPAEpiC to IC50 for human A549 cells; format: toxicity; details: HPAEpiC cells (CC50) versus A549 cells (IC50)
A549 [15] = assay: Induction of apoptosis in human A549 cells assessed as viable cells at 1.5 uM after 24 hrs by annexin V-FITC/propidium iodide staining-based flow cytometric method (reference value: 97.7%); format: functional; details: A549, 24 h, read-out: Activity
OVCAR-3 = assay: Antiproliferative activity against human OVCAR3 cells after 24 hrs by MTT assay; format: functional, cell-based; details: OVCAR-3, 24 h
A549 [16] = assay: Antiproliferative activity against human A549 cells at 0.512 uM after 24 hrs by MTT assay relative to control; format: functional
SGC-7901 = assay: Antiproliferative activity against human SGC7901 cells after 24 hrs by MTT assay; format: functional, cell-based; details: SGC-7901, 24 h
A549 [17] = assay: Induction of apoptosis in human A549 cells assessed as necrotic cells at 1.5 uM after 24 hrs by annexin V-FITC/propidium iodide staining-based flow cytometric method (reference value: 0%); format: functional
A549 [18] = assay: Induction of apoptosis in human A549 cells assessed as decrease in ratio of Bcl2/Bax at 0.5 uM after 24 hrs by Western blot method relative to control; format: functional
A549 [19] = assay: Antiproliferative activity against human A549 cells after 24 hrs by MTT assay; format: functional, cell-based; details: A549, 24 h
A549 [20] = assay: Induction of apoptosis in human A549 cells assessed as viable cells at 1 uM after 24 hrs by annexin V-FITC/propidium iodide staining-based flow cytometric method (reference value: 97.7%); format: functional; details: A549, 24 h, read-out: Activity
A549 [21] = assay: Induction of apoptosis in human A549 cells assessed as early apoptotic cells at 3 uM after 24 hrs by annexin V-FITC/propidium iodide staining-based flow cytometric method (reference value: 1.2%); format: functional
A549 [22] = assay: Induction of apoptosis in human A549 cells assessed as necrotic cells at 0.5 uM after 24 hrs by annexin V-FITC/propidium iodide staining-based flow cytometric method (reference value: 0%); format: functional
A549 [23] = assay: Induction of apoptosis in human A549 cells assessed as decrease in ratio of Bcl2/Bax at 3 uM after 24 hrs by Western blot method relative to control; format: functional
A549 [24] = assay: Induction of apoptosis in human A549 cells assessed as early apoptotic cells at 1.5 uM after 24 hrs by annexin V-FITC/propidium iodide staining-based flow cytometric method (reference value: 1.2%); format: functional
A549 [25] = assay: Induction of apoptosis in human A549 cells assessed as upregulation of bax protein expression at 0.5 to 3 uM after 24 hrs by Western blot method; format: functional, cell-based
A549 [26] = assay: Induction of apoptosis in human A549 cells assessed as late apoptotic cells at 0.5 uM after 24 hrs by annexin V-FITC/propidium iodide staining-based flow cytometric method (reference value: 1.1%); format: functional
MDA-MB-231 = assay: Antiproliferative activity against human MDA-MB-231 cells after 24 hrs by MTT assay; format: functional, cell-based; details: MDA-MB-231, 24 h
A549 [27] = assay: Induction of apoptosis in human A549 cells assessed as early apoptotic cells at 0.5 uM after 24 hrs by annexin V-FITC/propidium iodide staining-based flow cytometric method (reference value: 1.2%); format: functional
A549 [28] = assay: Antiproliferative activity against human A549 cells at 20 uM after 24 hrs by MTT assay relative to control; format: functional
A549 [29] = assay: Induction of apoptosis in human A549 cells assessed as necrotic cells at 1 uM after 24 hrs by annexin V-FITC/propidium iodide staining-based flow cytometric method (reference value: 0%); format: functional
A549 [30] = assay: Antiproliferative activity against human A549 cells at 1.28 uM after 24 hrs by MTT assay relative to control; format: functional
A549 [31] = assay: Induction of apoptosis in human A549 cells assessed as early apoptotic cells at 1 uM after 24 hrs by annexin V-FITC/propidium iodide staining-based flow cytometric method (reference value: 1.2%); format: functional
A549 [32] = assay: Induction of apoptosis in human A549 cells assessed as late apoptotic cells at 1 uM after 24 hrs by annexin V-FITC/propidium iodide staining-based flow cytometric method (reference value: 1.1%); format: functional

Question: With `O=C(NNC(=O)c1ccccc1NS(=O)(=O)c1cnc(O)nc1O)c1cccc(Cl)c1` as the compound, how does the Activity (A549 [1]) read?
Answer: Active

Question: What about the selectivity ratio [2] of the same compound?
Answer: 14.2

Question: What about the viability at 0.5 µM (A549 [3]) of the same compound?
Answer: 91.4%

Question: What about the Activity (A549 [4]) of the same compound?
Answer: 0.4%

Question: What about the Activity (A549 [5]) of the same compound?
Answer: 55.39%

Question: What about the selectivity ratio [6] of the same compound?
Answer: 5.73

Question: And the selectivity ratio [7]?
Answer: 11.3

Question: What about the viability at 3 µM (A549 [8]) of the same compound?
Answer: 60.2%

Question: And the Activity (A549 [9])?
Answer: 3.9%

Question: What about the Activity (A549 [10]) of the same compound?
Answer: 2.5%

Question: What about the “fold change (FC)” value (A549 [11]) of the same compound?
Answer: 0.3

Question: What about the Activity (A549 [12]) of the same compound?
Answer: 66.28%

Question: And the “fold change (FC)” value (A549 [13])?
Answer: 0.54

Question: What about the selectivity ratio [14] of the same compound?
Answer: 16.7

Question: And the viability at 1.5 µM (A549 [15])?
Answer: 77.9%

Question: What about the pIC50 (OVCAR-3) of the same compound?
Answer: 5.68

Question: What about the Activity (A549 [16]) of the same compound?
Answer: 35.83%

Question: What about the pIC50 (SGC-7901) of the same compound?
Answer: 5.74

Question: And the Activity (A549 [17])?
Answer: 0%

Question: And the “fold change (FC)” value (A549 [18])?
Answer: 0.8

Question: What about the pIC50 (A549 [19]) of the same compound?
Answer: 5.90

Question: And the viability at 1 µM (A549 [20])?
Answer: 87.4%

Question: What about the Activity (A549 [21]) of the same compound?
Answer: 35.5%

Question: And the Activity (A549 [22])?
Answer: 0.1%

Question: And the “fold change (FC)” value (A549 [23])?
Answer: 0.17

Question: And the Activity (A549 [24])?
Answer: 19.6%

Question: What about the Activity (A549 [25]) of the same compound?
Answer: Active

Question: What about the Activity (A549 [26]) of the same compound?
Answer: 1.6%

Question: What about the pIC50 (MDA-MB-231) of the same compound?
Answer: 5.35

Question: And the Activity (A549 [27])?
Answer: 6.9%

Question: And the Activity (A549 [28])?
Answer: 82.54%

Question: What about the Activity (A549 [29]) of the same compound?
Answer: 0.1%

Question: And the Activity (A549 [30])?
Answer: 51.21%

Question: And the Activity (A549 [31])?
Answer: 9.8%

Question: What about the Activity (A549 [32]) of the same compound?
Answer: 2.7%

Source: ChEMBL document CHEMBL4152276, “Design, synthesis and biological evaluation of N-phenyl-(2,4-dihydroxypyrimidine-5-sulfonamido)benzoyl hydrazide derivatives as thymidylate synthase (TS) inhibitors and as potential antitumor drugs” (Eur J Med Chem, 2018)
